Test results published in PMC3718800, “Structural and Functional Perturbation of Giardia lamblia Triosephosphate Isomerase by Modification of a Non-Catalytic, Non-Conserved Region” (PLoS ONE, 2013).
Several values for one entry are separate records, joined by “and”; a condition that tells them apart may be missing. Equal values may be shown once.

Experiments:
GlTIM = conditions: cited from earlier work
[1] = system: yeast TIM, tyrosine by phenylalanine in the YGGS motif; design: method as in PMID 1390632; conditions: mutant vs wild type yeast TIM; cited from earlier work
[2] = system: yeast TIM, serine replaced by alanine in the YGGS motif; design: method as in PMID 1390632; conditions: mutant vs wild type yeast TIM; cited from earlier work
C222F GlTIM [3] = target: T1, C222F GlTIM (Giardia intestinalis, UniProt P36186, C222F); assay: Binding of 2-PG by change in intrinsic fluorescence; design: species or system Giardia lamblia
T1 construct: made in house; host or cells: E. coli BL21(DE3)pLys
T1 sequence (P36186 whole entry C222F): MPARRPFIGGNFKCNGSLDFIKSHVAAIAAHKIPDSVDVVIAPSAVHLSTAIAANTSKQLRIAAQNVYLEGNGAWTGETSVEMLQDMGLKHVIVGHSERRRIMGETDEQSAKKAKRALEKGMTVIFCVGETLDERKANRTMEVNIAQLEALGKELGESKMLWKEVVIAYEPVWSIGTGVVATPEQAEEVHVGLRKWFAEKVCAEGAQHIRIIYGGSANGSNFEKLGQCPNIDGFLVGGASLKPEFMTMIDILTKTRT
Method: (§1) The change in the intrinsic fluorescence of GlTIM in response to the addition of the transition state analog 2-PG was used to determine the affinity of the enzyme for this ligand, as previously reported. Intrinsic fluorescence spectra were collected before and after each addition of 1 or 2 μL aliquots of a 3 or 30 mM stock solution of 2-PG. The final volume added to the fluorescence cell was always less than 5% of the total volume; there was no effect on the absorbance of the protein solution at 280 nm at the highest 2-PG concentration assayed. In all cases, the spectra of samples without protein were subtracted from those that contained the enzyme. For each mutant, the maximal fluorescence intensity at 332 nm, for every 2-PG concentration, was plotted and fitted to y = (α/2Et)(Et+x+Kd) - √ (Et+x+Kd)^2– (4xEt), where y = 1 - (Fi/F) (Fi, initial fluorescence; F, fluorescence intensity at each 2-PG concentration); α is the maximal fluorescence change attained at saturating concentration of the ligand, Et represents the concentration of binding sites, Kd is the equilibrium dissociation constant and x is the concentration of 2-PG [21], [23].

C222M GlTIM [4] = target: T2, C222M GlTIM (Giardia intestinalis, UniProt P36186, C222M); assay: as above; design: species or system Giardia lamblia
T2 construct: made in house; host or cells: E. coli BL21(DE3)pLys
T2 sequence (P36186 whole entry C222M): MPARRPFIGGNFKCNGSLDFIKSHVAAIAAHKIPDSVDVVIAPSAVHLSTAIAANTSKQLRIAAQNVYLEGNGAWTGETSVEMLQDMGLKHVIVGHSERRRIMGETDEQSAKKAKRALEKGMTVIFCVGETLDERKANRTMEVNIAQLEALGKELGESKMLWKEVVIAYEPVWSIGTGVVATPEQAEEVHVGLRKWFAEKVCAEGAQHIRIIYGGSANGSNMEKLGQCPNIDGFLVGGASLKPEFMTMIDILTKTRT
Method: as §1

WT GlTIM [5] = target: T3, WT GlTIM (Giardia intestinalis, UniProt P36186); assay: as above; design: species or system Giardia lamblia; conditions: 2-PG vs WT GlTIM, fluorescence at 332 nm
T3 construct: made in house; host or cells: E. coli BL21(DE3)pLys
T3 sequence (P36186 whole entry): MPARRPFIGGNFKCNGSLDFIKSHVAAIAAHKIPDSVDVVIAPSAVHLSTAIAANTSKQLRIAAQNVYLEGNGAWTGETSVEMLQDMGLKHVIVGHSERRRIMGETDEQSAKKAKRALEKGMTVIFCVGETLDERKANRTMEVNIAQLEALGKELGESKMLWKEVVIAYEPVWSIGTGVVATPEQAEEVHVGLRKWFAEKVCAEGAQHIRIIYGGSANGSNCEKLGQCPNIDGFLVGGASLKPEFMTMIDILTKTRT
Method: as §1

C222D GlTIM [6] = target: T4, C222D GlTIM (Giardia intestinalis, UniProt P36186, C222D); assay: as above; design: species or system Giardia lamblia
T4 construct: made in house; host or cells: E. coli BL21(DE3)pLys
T4 sequence (P36186 whole entry C222D): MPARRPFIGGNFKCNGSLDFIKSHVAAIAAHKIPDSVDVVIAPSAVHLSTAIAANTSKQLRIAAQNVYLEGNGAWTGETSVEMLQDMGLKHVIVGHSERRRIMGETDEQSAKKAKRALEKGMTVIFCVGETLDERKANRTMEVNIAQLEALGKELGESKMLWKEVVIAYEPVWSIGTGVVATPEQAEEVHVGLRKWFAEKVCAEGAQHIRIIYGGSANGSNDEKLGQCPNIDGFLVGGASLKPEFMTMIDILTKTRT
Method: as §1

C222V GlTIM [7] = target: T5, C222V GlTIM (Giardia intestinalis, UniProt P36186, C222V); assay: as above; design: species or system Giardia lamblia
T5 construct: made in house; host or cells: E. coli BL21(DE3)pLys
T5 sequence (P36186 whole entry C222V): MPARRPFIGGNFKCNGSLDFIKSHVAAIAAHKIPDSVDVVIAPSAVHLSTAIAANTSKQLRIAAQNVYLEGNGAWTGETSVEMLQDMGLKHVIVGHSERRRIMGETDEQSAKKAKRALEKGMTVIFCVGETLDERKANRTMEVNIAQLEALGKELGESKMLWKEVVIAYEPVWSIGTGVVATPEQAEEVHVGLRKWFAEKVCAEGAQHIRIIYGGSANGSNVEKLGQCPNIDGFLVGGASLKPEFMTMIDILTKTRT
Method: as §1

C222K GlTIM [8] = target: T6, C222K GlTIM (Giardia intestinalis, UniProt P36186, C222K); assay: as above; design: species or system Giardia lamblia
T6 construct: made in house; host or cells: E. coli BL21(DE3)pLys
T6 sequence (P36186 whole entry C222K): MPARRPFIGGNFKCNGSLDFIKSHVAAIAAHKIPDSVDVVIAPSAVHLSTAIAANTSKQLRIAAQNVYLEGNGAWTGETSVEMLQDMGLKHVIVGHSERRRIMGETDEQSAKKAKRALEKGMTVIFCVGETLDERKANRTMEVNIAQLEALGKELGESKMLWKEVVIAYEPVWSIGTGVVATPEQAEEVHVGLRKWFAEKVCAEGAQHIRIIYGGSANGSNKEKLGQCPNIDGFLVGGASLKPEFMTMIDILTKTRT
Method: as §1

C222N GlTIM [9] = target: T7, C222N GlTIM (Giardia intestinalis, UniProt P36186, C222N); assay: as above; design: species or system Giardia lamblia
T7 construct: made in house; host or cells: E. coli BL21(DE3)pLys
T7 sequence (P36186 whole entry C222N): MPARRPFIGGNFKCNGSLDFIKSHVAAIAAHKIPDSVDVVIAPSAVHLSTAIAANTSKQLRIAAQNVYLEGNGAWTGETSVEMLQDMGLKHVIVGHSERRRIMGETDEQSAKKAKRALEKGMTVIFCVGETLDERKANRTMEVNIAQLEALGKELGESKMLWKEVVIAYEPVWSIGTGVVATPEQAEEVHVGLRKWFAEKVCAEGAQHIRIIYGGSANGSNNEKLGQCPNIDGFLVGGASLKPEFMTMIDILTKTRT
Method: as §1

C222F GlTIM [10] = target: T1, C222F GlTIM; assay: Competitive inhibition of TIM activity by 2-PG (global fit); assay type: biochemical, Giardia lamblia; conditions: 2-PG vs C222F
Method: (§2) Glyceraldehyde 3-phosphate (GAP), buffers, salts and all the other analytical grade reagents were acquired from Sigma–Aldrich; α-glycerol-3-phosphate dehydrogenase (α-GDH) was from Roche, crystallization screen kits were obtained from Hampton Research. Restriction enzymes, DNA polymerase and T4 DNA ligase were purchased from New England BioLabs and Invitrogene. Oligonucleotide synthesis and DNA sequencing was performed at the Unidad de Biología Molecular, Instituto de Fisiología Celular, UNAM. Protein concentration was determined by the bicinchoninic acid method or by absorbance at 280 nm for pure GlTIM (ε280 = 26600 M^-1cm^-1). The TIM activity was determined at 25°C by a coupled assay, following the decrease in absorbance at 340 nm. The standard reaction mixture contained 100 mM triethanolamine/10 mM EDTA, pH 7.4 (TE buffer), 1 mM GAP, 0.2 mM NADH, and 0.9 units of α-GDH (20 μg/mL); the reaction was initiated by addition of 5 ng/mL of WT, C222V or C222M GlTIM, 10 ng/mL of C222N, 20 ng/mL of C222D or C222F, and 200 ng/mL of C222K. Kinetic, binding and stability data were analyzed by non-linear regression calculations with Origin software.
(§3) Determination of Km and Vmax was performed by fitting initial velocity data at GAP concentrations ranging from 0.3 to 3 mM to the Michaelis-Menten equation (v = Vmax•S/Km+S) by non-linear regression calculations. The kcat was derived from Vmax by considering a molecular mass for the monomer of 27.7 kDa. The Ki for 2-phosphoglycolate (2-PG) was calculated by global fit of initial velocity curves (GAP from 0.3 to 3 mM) obtained at different fixed concentrations of the inhibitor. Prior to fitting collectively the data to the simple competitive inhibition equation (v = Vmax•S/Km(1+I/Ki)+S), individual data were plotted as double reciprocal plots to confirm competitive inhibition.

C222M GlTIM [11] = target: T2, C222M GlTIM; assay: as above; assay type: biochemical, Giardia lamblia
Method: as §2, §3

WT GlTIM [12] = target: T3, WT GlTIM; assay: as above; assay type: biochemical, Giardia lamblia; conditions: 2-PG vs WT GlTIM
Method: as §2, §3

C222D GlTIM [13] = target: T4, C222D GlTIM; assay: as above; assay type: biochemical, Giardia lamblia; conditions: 2-PG vs C222D
Method: as §2, §3

C222V GlTIM [14] = target: T5, C222V GlTIM; assay: as above; assay type: biochemical, Giardia lamblia
Method: as §2, §3

C222K GlTIM [15] = target: T6, C222K GlTIM; assay: as above; assay type: biochemical, Giardia lamblia; conditions: highest concentrations of 2-PG that could be assayed
Method: as §2, §3

C222N GlTIM [16] = target: T7, C222N GlTIM; assay: as above; assay type: biochemical, Giardia lamblia
Method: as §2, §3

Question: For `O=C(O)c1cc(SSc2ccc([N+](=O)[O-])c(C(=O)O)c2)ccc1[N+](=O)[O-]` [DTNB, 5,5′-dithio-bis (2-nitrobenzoic acid)], which “catalytic activity of GlTIM after derivatization of C222” value (GlTIM) is on record?
Answer: Its value is “completely abolished”.

Question: And the “inactivation of GlTIM” value (GlTIM)?
Answer: Its value is “total inactivation”.

Question: What does the source list for `CSS(C)(=O)=O` [MMTS, methylmethane thiosulfonate]?
Answer: catalytic activity of GlTIM after derivatization of C222 (GlTIM): reduced the catalytic activity of GlTIM by half; decrease of the kcat/Km ratio after modification of C222 (GlTIM): three-fold decrease

Question: Which “increase in the Kd” value [1] does the source give for `O=C(COP(=O)(O)O)NO` [PGH, phosphoglycolohydroxamate] here?
Answer: Its value is 200 fold.

Question: And the change of affinity [2]?
Answer: Its change of affinity is 5 fold.

Question: With `O=C(O)COP(=O)(O)O` [2-PG, 2-phosphoglycolate] as the molecule, how does the “changes in fluorescence induced by 2-PG” value (C222F GlTIM [3]) read?
Answer: Its value is “minimal”.

Question: What about the Kd (C222M GlTIM [4]; 2-PG vs C222M, fluorescence at 332 nm) of the same molecule?
Answer: Its Kd is 79.4 ± 8.5 µM.

Question: What about the “Kd MUT/Kd WT ratio” value (C222M GlTIM [4]; C222M vs WT) of the same molecule?
Answer: Its value is 3.01.

Question: And the Kd (WT GlTIM [5])?
Answer: The Kd was 26.4 ± 2.6 µM.

Question: And the “changes in fluorescence induced by 2-PG” value (C222D GlTIM [6])?
Answer: The value was “minimal”.

Question: And the Kd (C222V GlTIM [7]; 2-PG vs C222V, fluorescence at 332 nm)?
Answer: The Kd was 57.4 ± 7.1 µM.

Question: What about the “Kd MUT/Kd WT ratio” value (C222V GlTIM [7]; C222V vs WT) of the same molecule?
Answer: Its value is 2.17.

Question: What about the “changes in fluorescence induced by 2-PG” value (C222K GlTIM [8]) of the same molecule?
Answer: Its value is “minimal”.

Question: And the Kd (C222N GlTIM [9]; 2-PG vs C222N, fluorescence at 332 nm)?
Answer: The Kd was 113 ± 41.7 µM.

Question: And the “Kd MUT/Kd WT ratio” value (C222N GlTIM [9]; C222N vs WT)?
Answer: Its value is 4.29.

Question: What about the Ki (C222F GlTIM [10]) of the same molecule?
Answer: The Ki was 7280 ± 2010 µM.

Question: And the Ki (C222M GlTIM [11]; 2-PG vs C222M, competitive)?
Answer: Its Ki is 325 ± 50 µM.

Question: And the “Ki MUT/Ki WT ratio” value (C222M GlTIM [11]; C222M vs WT)?
Answer: The value was 3.7 and 3.74.

Question: And the Ki (WT GlTIM [12])?
Answer: Its Ki is 87 ± 15 µM.

Question: What about the Ki (C222D GlTIM [13]) of the same molecule?
Answer: The Ki was 1480 ± 168 µM.

Question: And the Ki (C222V GlTIM [14]; 2-PG vs C222V, competitive)?
Answer: Its Ki is 98 ± 10 µM.

Question: And the “Ki MUT/Ki WT ratio” value (C222V GlTIM [14]; C222V vs WT)?
Answer: The value was 1.13.

Question: What about the “inhibition by 2-PG” value (C222K GlTIM [15]) of the same molecule?
Answer: The value was “only minimal inhibition was observed”.

Question: What about the Ki (C222N GlTIM [16]; 2-PG vs C222N, competitive) of the same molecule?
Answer: The Ki was 560 ± 59 µM.

Question: What about the “Ki MUT/Ki WT ratio” value (C222N GlTIM [16]; C222N vs WT) of the same molecule?
Answer: The value was 6.4 and 6.44.
